Assay results taken from ChEMBL document CHEMBL4152362, “Discovery of DS-6930, a potent selective PPARγ modulator. Part II: Lead optimization” (Bioorg Med Chem, 2018).
Values after ≈ are worked out from the molar mass of the structure shown. Active and inactive are the calls of the source. The calls are words filed in the database; no cut-off is given here.

What was measured:
Rattus norvegicus [1] = experiment: Antidiabetic activity in Zucker diabetic fatty rat assessed as reduction in plasma glucose level at 3 mg/kg, po administered once daily for 14 days measured on day 15 relative to control; format: functional; parameters: scale not given: the % may be the effect or the level left
[2] = Cmax in Zucker diabetic fatty rat at 3 mg/kg, po dosed once daily for 14 days and followed by additional administration on day 15; format: ADME, organism-based; parameters: dose 3 mg/kg, route oral; settings: in vivo
[3] = AUC (0 to 24 hrs) in Zucker diabetic fatty rat at 3 mg/kg, po dosed once daily for 14 days and followed by additional administration on day 15; format: ADME, organism-based; parameters: time < 24 hr, dose 3 mg/kg, route oral; settings: in vivo
[4] = Tmax in Zucker diabetic fatty rat at 3 mg/kg, po dosed once daily for 14 days and followed by additional administration on day 15; format: ADME, organism-based; settings: in vivo
Rattus norvegicus [5] = experiment: Toxicity in Zucker diabetic fatty rat assessed as body weight gain at 3 mg/kg, po administered once daily for 14 days relative to control; format: organism-based; settings: in vivo, 336 h
[6] = Metabolic stability in human liver microsomes after 0.5 hrs; format: ADME, microsome; settings: read-out: Stability
[7] = molecular target: T1, Peroxisome proliferator-activated receptor alpha (Homo sapiens) (UniProt Q07869); experiment: Agonist activity at recombinant human GAL4-DBD fused PPARalpha LBD expressed in COS7 cells at 10 uM after 24 hrs by luciferase reporter gene assay relative to 2-(4-tert-Butylphenoxy)-3-[4-[2-[(4-pyridin-2-ylbenzoyl)amino]ethoxy] phenyl]propionic acid; format: cell-based
T1 sequence (whole entry): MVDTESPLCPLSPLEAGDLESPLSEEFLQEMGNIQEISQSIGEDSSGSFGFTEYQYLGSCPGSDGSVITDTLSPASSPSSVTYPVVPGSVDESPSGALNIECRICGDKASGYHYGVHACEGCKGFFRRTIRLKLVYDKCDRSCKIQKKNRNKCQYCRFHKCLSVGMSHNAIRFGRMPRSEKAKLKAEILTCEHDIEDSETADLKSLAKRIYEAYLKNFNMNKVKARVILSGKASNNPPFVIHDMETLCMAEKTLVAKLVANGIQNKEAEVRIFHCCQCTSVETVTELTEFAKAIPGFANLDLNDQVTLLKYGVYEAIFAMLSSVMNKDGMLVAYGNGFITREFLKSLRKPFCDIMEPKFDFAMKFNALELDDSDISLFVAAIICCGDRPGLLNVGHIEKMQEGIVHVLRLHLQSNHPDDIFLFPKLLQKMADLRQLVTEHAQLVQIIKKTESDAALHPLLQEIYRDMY

[8] = molecular target: T2, Peroxisome proliferator-activated receptor gamma (Homo sapiens) (UniProt P37231); experiment: Agonist activity at recombinant human GAL4-DBD fused PPARgamma LBD expressed in COS7 cells at 10 uM after 24 hrs by luciferase reporter gene assay relative to rosiglitazone; format: cell-based
T2 sequence (whole entry): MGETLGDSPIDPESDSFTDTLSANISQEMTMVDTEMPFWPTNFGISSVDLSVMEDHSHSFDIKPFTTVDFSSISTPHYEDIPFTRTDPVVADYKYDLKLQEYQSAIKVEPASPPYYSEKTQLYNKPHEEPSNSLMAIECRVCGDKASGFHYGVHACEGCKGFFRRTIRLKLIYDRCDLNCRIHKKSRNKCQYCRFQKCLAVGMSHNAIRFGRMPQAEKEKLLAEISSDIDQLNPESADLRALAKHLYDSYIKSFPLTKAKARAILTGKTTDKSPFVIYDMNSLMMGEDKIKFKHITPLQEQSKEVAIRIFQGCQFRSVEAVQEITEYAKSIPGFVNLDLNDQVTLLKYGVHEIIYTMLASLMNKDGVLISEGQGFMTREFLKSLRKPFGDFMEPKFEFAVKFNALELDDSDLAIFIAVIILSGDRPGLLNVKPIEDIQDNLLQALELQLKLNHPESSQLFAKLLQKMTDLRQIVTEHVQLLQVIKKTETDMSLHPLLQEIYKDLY

[9] = molecular target: T3, Peroxisome proliferator-activated receptor gamma (Homo sapiens, UniProt P37231); experiment: Agonist activity at recombinant human GAL4-DBD fused PPARgamma LBD expressed in COS7 cells after 24 hrs by luciferase reporter gene assay; format: cell-based
T3 sequence (P37231 whole entry): T2 sequence (whole entry)

[10] = molecular target: T4, Peroxisome proliferator-activated receptor delta (Homo sapiens) (UniProt Q03181); experiment: Agonist activity at PPARdelta (unknown origin) at 10 uM
T4 sequence (whole entry): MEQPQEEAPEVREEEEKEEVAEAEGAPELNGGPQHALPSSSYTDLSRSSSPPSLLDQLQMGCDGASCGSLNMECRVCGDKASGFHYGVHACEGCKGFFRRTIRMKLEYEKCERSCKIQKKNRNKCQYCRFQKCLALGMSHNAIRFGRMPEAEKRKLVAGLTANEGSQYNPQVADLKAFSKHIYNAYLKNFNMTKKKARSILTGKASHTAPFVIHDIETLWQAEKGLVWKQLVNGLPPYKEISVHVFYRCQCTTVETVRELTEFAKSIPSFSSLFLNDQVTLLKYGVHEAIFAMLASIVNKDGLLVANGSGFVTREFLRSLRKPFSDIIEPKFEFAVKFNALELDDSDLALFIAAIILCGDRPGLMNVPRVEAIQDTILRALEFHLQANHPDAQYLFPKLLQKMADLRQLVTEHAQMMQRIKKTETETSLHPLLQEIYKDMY

[11] = 1-octanol/PBS distribution co-efficient, log D of the compound at […] at pH 7.4 after 30 mins by HPLC-MS/MS method; format: physicochemical
[12] = Aqueous thermodynamic solubility of the compound in pH 6.8 solution up to 4 hrs by HPLC-UV analysis; format: physicochemical; settings: read-out: Therm_solubility
[13] = molecular target: T5, Peroxisome proliferator-activated receptor alpha (Homo sapiens, UniProt Q07869); experiment: Agonist activity at recombinant human GAL4-DBD fused PPARalpha LBD expressed in COS7 cells after 24 hrs by luciferase reporter gene assay; format: cell-based
T5 sequence (Q07869 whole entry): T1 sequence (whole entry)

[14] = Apparent permeability of the compound after 4 hrs by PAMPA; format: ADME
[15] = Metabolic stability in rat liver microsomes after 0.5 hrs; format: ADME, microsome; settings: read-out: Stability

SMILES | Activity (Rattus norvegicus [1]) [%] | Cmax [2] [ng/mL] | AUC at 24 h [3] [ng·h/mL] | Tmax [4] [h] | Activity (Rattus norvegicus [5]) [%] | remaining at 0.5 h [6] [%] | Emax [7] [%] | Emax [8] [%] | EC50 [9] [nM] | Activity [10] | logD at 0.5 h [11] | solubility thermodynamic at 4 h [12] [µg/mL] | EC50 [13] [nM] | Papp at 4 h [14] [×10⁻⁶ cm/s] | remaining at 0.5 h [15] [%]
Cc1cnc(Oc2ccc3nc(COc4cccc(C(=O)[O-])c4)n(C)c3c2)c(F)c1.[Na+] | 65.7 | 420 | 3610 | 2 | 10.8 |  |  |  |  |  |  |  |  |  | 
Cn1c(COc2cccc(C(=O)O)c2)nc2cnc(Oc3ccc(Cl)c(F)c3)cc21 |  |  |  |  |  | 98 | 15 | 73 | 1170 | inactive | 1.4 | 11 (≈ 25.7 µM) | > 10000 | 11.2 | 
Cn1c(COc2cccc(C(=O)O)c2)nc2ccc(Oc3ncc(Cl)cc3Cl)cc21 | 53.3 | 130 | 1400 | 2.4 | 10.1 | 100 | 6 | 61 | 89 |  | 1.9 | 9.9 (≈ 22.3 µM) | > 10000 | 16.1 | 
Cc1cc(C)cc(Oc2ccc3nc(COc4cccc(C(=O)O)c4)n(C)c3n2)c1 |  |  |  |  |  | 71 | 19 | 83 | 41 | inactive | 2.3 | 0.5 (≈ 1.24 µM) | > 10000 | 17.4 | 
Cc1ccc(Oc2cc3c(cn2)nc(COc2cccc(C(=O)O)c2)n3C)cc1 |  |  |  |  |  | 80 | 6 | 80 | 746 | inactive | 1 | 360 (≈ 924 µM) | > 10000 | 6.8 | 
Cc1ccc(Oc2ccc3nc(COc4cccc(C(=O)O)c4)n(C)c3n2)cc1C |  |  |  |  |  | 73 | 30 | 74 | 90 | inactive | 2.2 | 16 (≈ 39.7 µM) | > 10000 | 12.4 | 
Cc1cc(Cl)cnc1Oc1ccc2nc(COc3cccc(C(=O)O)c3)n(C)c2c1 | 54.1 | 120 | 1250 | 2.4 | 18.5 | 85 | 7 | 92 | 21 |  | 1.8 | 3.9 (≈ 9.2 µM) | > 10000 | 13.7 | 81
Cn1c(COc2cccc(C(=O)O)c2)nc2cnc(Oc3ccc4c(c3)CCC4)cc21 | 1.3 | 410 | 2410 | 2 | 6.3 | 100 | 22 | 55 | 20 | inactive | 1.6 | 70 (≈ 168 µM) | > 10000 | 16.5 | 81
Cc1ccc(Oc2ccc3nc(COc4cccc(C(=O)O)c4)n(C)c3n2)c(C)c1 |  |  |  |  |  | 63 | 17 | 75 | 101 | inactive | 2.3 | 0.9 (≈ 2.23 µM) | > 10000 | 28.8 | 
Cn1c(COc2cccc(C(=O)O)c2)nc2ccc(Oc3ccc(Cl)cn3)cc21 | 14.8 | 66 | 1010 | 4.4 | 0.2 | 100 | 3 | 66 | 71 |  | 1.2 | 17 (≈ 41.5 µM) | > 10000 | 16.2 | 100
Cn1c(COc2cccc(C(=O)O)c2)nc2cnc(Oc3ccc4c(c3)OCC4)cc21 |  |  |  |  |  | 100 | 4 | 59 | 335 | inactive | 0.6 | 79 (≈ 189 µM) | > 10000 | 3.6 | 
Cc1ccc(Oc2ccc3nc(COc4cccc(C(=O)O)c4)n(C)c3n2)cc1 | 37.6 | 510 | 2520 | 2 | 6.8 |  | 38 | 58 | 45 | inactive | 1.7 | 33 (≈ 84.7 µM) | > 10000 | 12.6 | 100
